Test [1] has as its system RUES2 cells. Briefly: Removing individual factors or blocking signaling pathways during the ventralization stage (d6-d15). Type of test: cell-based, human. As for the experimental part:
FIG. 3. Effect of removing individual factors or blocking signaling pathways during the ‘ventralization’ stage (d6-d15) on the expression of FOXA2 and NKX2.1 in RUES2 cells cultured according to the protocol shown on the upper right of the figure. 10× tile scans of 9 (3×3) contiguous fields. Immunofluorescence images represent reproducible results from 3 independent experiments.
Day-15, -25 or -48 cultures in 48-well tissue culture plates were fixed with 4% paraformaldehyde for 15 minutes at room temperature and washed twice with PBS. The cells were permeabilized in PBS with 0.25% triton and 5% fetal donkey serum (Jackson ImmunoResearch, West Grove, Pa.) for 30 min and blocked in 5% fetal donkey serum for 2 hours at room temperature. The cell cultures were stained with one, or a combination of two or three of the following primary antibodies: FOXA2/HNF-3β (goat, Santa Cruz Biotechnology, Inc., Santa Cruz, Calif., Cat#sc-6554, clone M-20, 1:50), TTF-1/Nkx2.1 (mouse, Invitrogen, 18-0221, clone 8G7G3/1, 1:100), TTF-1/Nkx2.1 (Rabbit, Seven Hills Bioreagents, Cincinnati, Ohio, Cat#WRAB-1231, 1:1000), p63α (rabbit, Santa Cruz, sc-8344, clone H-129, 1:100), Sox2 (Rabbit, stemgent, 09-0024, 1:100), Pax 6 (rabbit, Covance, Princeton, N.J., Cat#PRB-278P, 1:300), Pax8 (mouse, Abcam, Cambridge, Mass., Cat#ab53490, 1:100), EpCAM (APC conjugated, mouse, BD Biosciences, BDB347200), Tuj1 (mouse, Sigma, T8578, Clone 2G10, 1:4000), Mucin5AC (mouse (Biotin), Abcam, ab79082, clone 45M1, 1:100), Mucin5B (rabbit, Santa Cruz, sc-20119, clone H-300, 1:100), Mucin2 (rabbit, Santa Cruz, sc-15334, clone H-300, 1:100), Foxj1 (mouse, e-bioscience, San Diego, Calif., Cat#14-9965-82, Clone: 2A5, 1:100), cc-10 (goat, Santa Cruz, clone C-20, sc-9770, 1:100), pro-SPC (rabbit, Seven Hills, WRAB-9337, 1:2000), mature-SPC (rabbit, Seven Hills, WRAB-76694, 1:1000), mature SPB (rabbit, Seven Hills, WRAB-48604, 1:1000), ABCA3 (rabbit, Seven Hills, WRAB-70565, 1:100), Mucin1 (Armenian Hamster, NeoMarkers, Fremont, Calif., Cat#HM-1630-P1ABX, clone MH1, 1:100), Podoplanin (rabbit, Santa Cruz, sc-134482 , FL-162, 1:100), AQP5 (goat, Santa Cruz, sc-9890, clone G-19, 1:100). Secondary antibodies were donkey anti-mouse whole IgG-Alexa Fluor 488, 715-545-150, donkey anti-mouse whole IgG-Alexa Fluor 647, 715-605-150, donkey anti-rabbit whole IgG-Alexa Fluor 488, 711-545-152, donkey anti-rabbit whole IgG-Cy3, 711-166-152, donkey anti-goat whole IgG-Alexa Fluor 488, donkey anti-goat whole IgG-Cy3, 705-165-147, donkey anti-goat whole IgG-Alexa Fluor 647, 705-605-147, all from Jackson ImmunoResearch.
For d6-15 lung progenitor induction (9 days) , the AFE from Example 3 were treated with a ‘ventralization’ cocktail containing CHIR99021, 3 μM (WNT signaling agonist), human FGF10, 10 ng/ml; human FGF7, 10 ng/ml; human BMP4, 10 ng/ml; murine EGF, 20 ng/ml and all-trans retinoic acid (ATRA), 0-1 μM (all from R&D, except CHIR99021 from (Stemgent, Cambridge. Mass.) and ATRA from Sigma) in SFD media for 8-10 days. This treatment produced lung and airway progenitor cells (also herein referred to as “lung field progenitor cells”). At this stage, the lung progenitor cells were early, and they might have committed to a lineage of either lung or airway epithelium, but we wouldn't be able to know because the corresponding airway and distal lung specific markers are not expressed at this stage yet.
To examine the contribution of each of the factors to the specification of lung and airway progenitors, each of the factors was withdrawn from the ‘ventralization’ cocktail (i.e., CHIR99021, FGF10, FGF7, BMP4 and EGF), or blocked by specific inhibitors (i.e., NOGGIN as biological inhibitor of BMP4 signaling and IWP2 as pharmacological inhibitor of WNT signaling), or added at different concentrations (i.e., RA 0, 0.05, 0.1, 0.5, 1 μM, and BMS493 (10 μM, Tocris) as RA inhibitor). […]

In test [2] the test system is RUES2 cells. Briefly: RA concentration in the ventralization cocktail (NKX2.1 and FOXA2 mRNA and protein). Type of test: cell-based, human. As for the experimental part: FIG. 2.(a) Expression of NKX2.1 and FOXA2 mRNA (lower left) and protein (lower right) after culture of RUES2 cells according to the protocol on top of the panel using various concentrations of RA during the ‘ventralization’ stage. Triplicate experiments representative of 3 independent experiments, *, P<0.05, compared with 0.5 μM RA group. (b) 10× tile scan of 25 (5×5) contiguous fields showing expression of FOXA2, SOX2 and NKX2.1 in RUES2 cells cultured according to the protocol on top of the panel. (c) 20× tile scan of 4 (2×2) contiguous fields showing expression of TUJ1, NKX2.1 and FOXA2.1 in RUES2 cells cultured according to the protocol on top of panel (b). […]
Total RNA was extracted using Trizol (Invitrogen), phase lock tubes (5′ Prime) and RNeasy kit (Qiagen, Valencia, Calif.). RNA concentration was measured with a NanoDrop 2000 […] (Thermo Fisher Scientific). […] Real-time quantitative PCR was performed on ABI vii7A Thermocycler [Applied Biosystems (Life Technologies)] using ABI Power SYBR Green PCR Master Mix [Applied Biosystems (Life Technologies)]. […] Absolute quantification of each gene was obtained using a standard curve of serial diluted genomic DNA and normalized to housekeeping genes β-ACTIN and TBP (Tata Box Binding protein). […]

Where [3] appears, read: factor removed from the CFKB cocktail, d6-d15.

For `Cc1c[nH]c(-c2cnc(NCCNc3ccc(C#N)cn3)nc2-c2ccc(Cl)cc2Cl)n1` [CHIR], the “effect of removing the factor on generation of FOXA2+ and FOXA2+NKX2.1+ cells” value (shortened to “effect of removing the factor”) in test [1] (setting [3]) is given as “severely reduced”.

On to `Cc1ccc2nc(NC(=O)CSc3nc4c(c(=O)n3-c3ccccc3)SCC4)sc2c1` [IWP2], for which the “generation of NKX2.1+ cells” value in test [1] (CHIR removed plus additional blockade of endogenous WNT signaling by the substance) is recorded as “completely abrogated”.

Turning to `CC1=C(/C=C/C(C)=C/C=C/C(C)=C/C(=O)O)C(C)(C)CCC1` [RA, all-trans retinoic acid], the “NKX2.1 mRNA and NKX2.1+ fraction” value in test [2] (higher RA concentrations, FOXA2+ endoderm maintained) is reported as “dropped”. Besides, the “induction of NKX2.1 and FOXA2 mRNA and protein” value in test [2] (low RA concentrations (0.05-0.1 μM)) is reported as “optimal induction”.

B1: FGF7: human FGF7 (KGF), factor of the ventralization cocktail (protein, UniProt P21781 32-194, looked up)
Fibroblast growth factor 7: CNDMTPEQMATNVNCSSPERHTRSYDYMEGGDIRVRRLFCRTQWYLRIDKRGKVKGTQEMKNNYNIMEIRTVAVGIVAIKGVESEFYLAMNKEGKLYAKKECNEDCNFKELILENHYNTYASAKWTHNGGEMFVALNQKGIPVRGKKTKKEQKTAHFLPMAIT
For the molecule B1, the “effect of removing the factor” value in test [1] (setting [3]) is “no effect”.

B2: NOGGIN: biological inhibitor of BMP4 signaling (protein, UniProt Q13253 28-232, looked up)
Noggin: QHYLHIRPAPSDNLPLVDLIEHPDPIFDPKEKDLNETLLRSLLGGHYDPGFMATSPPEDRPGGGGGAAGGAEDLAELDQLLRQRPSGAMPSEIKGLEFSEGLAQGKKQRLSKKLRRKLQMWLWSQTFCPVLYAWNDLGSRFWPRYVKVGSCFSKRSCSVPEGMVCKPSKSVHLTVLRWRCQRRGGQRCGWIPIQYPIISECKCSC
Turning to B2, in test [1] (BMP signaling blocked by addition of the substance during ventralization stage), the “generation of FOXA2+NKX2.1+ cells” value is “less than 5%”.

B3: FGF10: human FGF10, factor of the ventralization cocktail (protein, UniProt O15520 38-208, looked up)
Fibroblast growth factor 10: QALGQDMVSPEATNSSSSSFSSPSSAGRHVRSYNHLQGDVRWRKLFSFTKYFLKIEKNGKVSGTKKENCPYSILEITSVEIGVVAVKAINSNYYLAMNKKGKLYGSKEFNNDCKLKERIEENGYNTYASFNWQHNGRQMYVALNGKGAPRRGQKTRRKNTSAHFLPMVVHS
In the case of B3, the “effect of removing the factor” value in test [1] (setting [3]) is “no effect”.

B4: BMP4: human BMP4, factor of the ventralization cocktail (protein, UniProt P12644 293-408, looked up)
Bone morphogenetic protein 4: SPKHHSQRARKKNKNCRRHSLYVDFSDVGWNDWIVAPPGYQAFYCHGDCPFPLADHLNSTNHAIVQTLVNSVNSSIPKACCVPTELSAISMLYLDEYDKVVLKNYQEMVVEGCGCR
Regarding B4, in test [1] (setting [3]), the “generation of NKX2.1+ cells after removing the factor” value is given as “approximately 40%”.

The values above are taken from patent publication US9988606B2, “Generation of airway and lung progenitors and epithelial cells and three-dimensional anterior foregut spheres” (THE TRUSTEES OF COLUMBIA UNIVERSITY IN THE CITY OF NEW YORK, priority 2012, dated 2018).
